Laboratory results from article PMC4773904 (The New England journal of medicine, 2015).

How the values were obtained:
[1] = system: Ba/F3 cells expressing EML4-ALK L1198F; test: Ba/F3 cell-survival assay; type: cell-based
[2] = system: Ba/F3 cells expressing EML4-ALK C1156Y–L1198F; test: Ba/F3 cell-survival assay; type: cell-based
ALK = details: in cell lines; cited from earlier work
[3] = system: metastatic ALK-rearranged NSCLC; test: Case report: treatment course of a patient with metastatic ALK-rearranged NSCLC; type: in vivo, human; details: first restaging CT after 5 weeks of treatment, phase 1 trial, single patient
previously treated NSCLC = details: patients with previously treated NSCLC, phase 3 trial; cited from earlier work

## C[C@H]1Oc2cc(cnc2N)-c2c(nn(C)c2C#N)CN(C)C(=O)c2ccc(F)cc21 [lorlatinib, (10R)-7-amino-12-fluoro-2,10,16-trimethyl-15-oxo-10,15,16,17-tetrahydro-2H-8,4-(metheno)pyrazolo [4,3-h][2,5,11]-benzoxadiazacyclotetra decine-3-carbonitrile]
[1]
  Sensitivity in cell-survival assay (in words): variable degrees of resistance
[2]
  Sensitivity in cell-survival assay (in words): resistant
ALK
  Potency against ALK: subnanomolar to low nanomolar
[3]
  Reduction in tumor burden: 41%

## CCC1=C[C@@H]2CN(C1)Cc1c([nH]c3ccccc13)[C@@](C(=O)OC)(c1cc3c(cc1OC)N(C)[C@H]1[C@@](O)(C(=O)OC)[C@H](OC(C)=O)[C@]4(CC)C=CCN5CC[C@]31[C@@H]54)C2 [vinorelbine]
Previously treated NSCLC
  Response rate: 0.8%
